Test results from patent publication US9890133B2 (priority 2011, dated 2018).
Values after ≈ are worked out from the molar mass of the structure shown. Where two headings read alike, the source gives them in different places.

What was measured:
[1] = test system: 48 rhinovirus types and coxsackievirus A21, B3, enterovirus 70 and echovirus 11; conditions: cell culture; cited from earlier work
[2] = clinical studies; cited from earlier work
[3] = in vitro; conditions: human
[4] = test system: Poliovirus 3; test: microbe, parasite or virus in culture; type: cell-based; conditions: Enterovirus C
[5] = test system: rhinovirus infections; conditions: treatment of rhinovirus infections; cited from earlier work
[6] = cited from earlier work; for metabolization and excretion / bioavailability: in vivo
[7] = in vivo; cited from earlier work
[8] = cited from earlier work

Row | SMILES | melting point [°C] | CC50 ([3]; Picorana CC50) [µg/mL] | other results
1 | CCOC(=O)/C=C/[C@H](C[C@@H]1CCNC1=O)NC(=O)[C@@H](CC(=O)[C@@H](NC(=O)c1cc(C)on1)C(C)C)Cc1ccc(F)cc1 [AG 7088] | – | – | concentration range with antiviral effect [1]: nanomolar concentration range
2 | CC(C)S(=O)(=O)n1c(N)nc2ccc(/C(=N/O)c3ccccc3)cc21 [Enviroxime] | – | – | pharmacokinetics [2]: bad pharmacokinetics; side effects [2]: unwanted side effects; therapeutic effects [2]: insignificant or few therapeutic effects
3 | CC(C)c1ccc2c(c1)OC1(OC(=O)/C=C/c3ccccc3)c3ccccc3C(=O)C21OC(=O)/C=C/c1ccccc1 (centres unmarked) [Example 34, (2E,2′E)-7-Isopropyl-10-oxo-9b,10-dihydro-4bH-benzo[d]indeno[1,2-b]furan-4b,9b-diyl bis(3-phenylacrylate)] | 111 to 113 | > 50 | –
4 | C=CC(=O)OC12Oc3cc(C(C)C)ccc3C1(O)C(=O)c1ccccc12 (centres unmarked) [Example 35, 9b-Hydroxy-7-isopropyl-10-oxo-9b,10-dihydro-4bH-benzo[d]indeno[1,2-b]furan-4b-yl acrylate] | 95 to 97 | 46.7 (≈ 133 µM) | –
5 | CC(C)c1ccc2c(c1)OC1(OC(=O)c3ccco3)c3ccccc3C(=O)C21O (centres unmarked) [Example 36, 9b-Hydroxy-7-isopropyl-10-oxo-9b,10-dihydro-4bH-benzo[d]indeno[1,2-b]furan-4b-yl furane-2-carboxylatefurane-2-carboxylic acid] | 116 to 120 | 9.34 (≈ 23.9 µM) | –
6 | CCOC(=O)OC12Oc3cc(C(C)C)ccc3C1(OC(=O)OCC)C(=O)c1ccccc12 (centres unmarked) [Example 37, Diethyl 7-isopropyl-10-oxo-9b,10-dihydro-4bH-benzo[d]indeno[1,2-b]furane-4b,9b-diyl dicarbonate] | 150 to 153 | 9.68 (≈ 22 µM) | –
7 | CCOC(=O)OC12Oc3cc(C(C)C)ccc3C1(O)C(=O)c1ccccc12 (centres unmarked) [Example 38, Ethyl 9b-hydroxy-7-isopropyl-10-oxo-9b,10-dihydro-4bH-benzo[d]indeno[1,2-b]furan-4b-yl carbonate] | 144 to 147 | 9.5 (≈ 25.8 µM) | –
8 | COC(=O)c1ccc2c(c1)C1(O)C(=O)c3ccccc3C1(O)O2 (centres unmarked) [Example 39, Methyl 4b,9b-dihydroxy-10-oxo-9b,10-dihydro-4bH-benzo[d]indeno[1,2-b]furan-8-carboxylate] | 220 to 223 | 45.1 (≈ 144 µM) | –
9 | CCN(CC)C(=O)OC12Oc3cc(C(C)C)ccc3C1(O)C(=O)c1ccccc12 (centres unmarked) [Example 40, 9b-Hydroxy-7-isopropyl-10-oxo-9b,10-dihydro-4bH-benzo[d]indeno[1,2-b]furan-4b-yl diethylcarbamate] | 127 to 130 | 44 (≈ 111 µM) | –
10 | CCN(CC)C(=O)OC12C(=O)c3ccccc3C1(O)Oc1cc(C(C)C)ccc12 (centres unmarked) [Example 41, 4b-Hydroxy-7-isopropyl-10-oxo-9b,10-dihydro-4bH-benzo[d]indeno[1,2-b]furan-9b-yl diethylcarbamate] | 101 to 104 | 27.1 (≈ 68.6 µM) | –
11 | CC(C)c1ccc2c(c1)OC1(O)c3cc(F)c(F)cc3C(=O)C21O (centres unmarked) [Example 42, 2,3-Difluoro-4b,9b-dihydroxy-7-isopropyl-4bH-benzo[d]indeno[1,2-b]furan-10(9bH)-one] | 134 to 136 | 8.94 (≈ 26.9 µM) | –
12 | CC(C)c1ccc2c(c1)O[C@@]1(O)c3cccc(O)c3C(=O)[C@@]21O [Example 43, 1,4b,9b-Trihydroxy-7-isopropyl-4bH-benzo[d]indeno[1,2-b]furan-10(9bH)-one] | 205 to 207 | – | CC50 [3]: 33.2 µg/mL (≈ 106 µM)
13 | CC(C)c1ccc2c(c1)O[C@@]1(O)c3cc4ccccc4cc3C(=O)[C@@]21O [Example 44, 4b,9b-Dihydroxy-7-isopropyl-1H-cyclopenta[b]naphthalene o[1,2-b]furan-10(9bH)-one] | 186 to 189 | 6.25 (≈ 18 µM) | –
14 | CC(=O)Nc1cccc2c1C(=O)C1(O)c3ccc(C(C)C)cc3OC21O (centres unmarked) [Example 48, N-(4b,9b-Dihydroxy-7-isopropyl-10-oxo-9b,10-dihydro-4bH-benzo[d]indeno[1,2-b]furan-1-yl)acetamide] | 152 to 154 | 35 (≈ 99.1 µM) | –
15 | COC(=O)Nc1cccc2c1C(=O)C1(O)c3ccc(C(C)C)cc3OC21O (centres unmarked) [Example 49, Methyl 4b,9b-dihydroxy-7-isopropyl-10-oxo-9b,10-dihydro-4bH-benzo[d]indeno[1,2-b]furan-1-ylcarbamate] | 96 to 99 | 9.18 (≈ 24.9 µM) | –
16 | CCc1ccc2c(c1)OC1(O)c3cccc(N)c3C(=O)C21O (centres unmarked) [Example 50, 1-Amino-7-ethyl-4b,9b-dihydroxy-4b,9b-dihydro-5-oxa-indeno[2,1-a]inden-10-one] | 200 to 203 | – | EC50 ([4]; HeLa37, 48 h, read-out: Poliovirus 3 EC50): < 0.1 µg/mL; EC50 ([4]; read-out: Poliovirus3 EC50): < 0.1 µg/mL; CC50 [3]: 49.9 µg/mL (≈ 168 µM)
17 | COC(=O)O[C@@]12Oc3cc(C(C)C)ccc3[C@]1(OC(=O)OC)C(=O)c1c(N)cccc12 [Example 51] | 110 to 120 | 17.5 (≈ 40.9 µM) | –

Row | SMILES | melting point [°C] | CC50 ([3]; Picorana CC50) [µg/mL] | other results
18 | CCc1ccc2c(c1)OC1(O)c3ccc(O)cc3C(=O)C21O (centres unmarked) [Example 52, 7-Ethyl-2,4b,9b-trihydroxy-4b,9b-dihydro-5-oxa-indeno[2,1-a]inden-10-one] | 208 to 213 | > 50 | –
19 | CC(=O)OC12Oc3cc(C(C)C)ccc3C1(OC(C)=O)C(=O)c1c([N+](=O)[O-])cccc12 (centres unmarked) [Example 53] | 201 to 203 | 45.6 (≈ 107 µM) | –
20 | CC(C)NC(=O)Nc1cccc2c1C(=O)C1(O)c3ccc(C(C)C)cc3OC21O (centres unmarked) [Example 55] | 81 to 85 | 7.49 (≈ 18.9 µM) | –
21 | CC(=O)Nc1cccc2c1C(=O)C1(N)c3ccc(C(C)C)cc3OC21O (centres unmarked) [Example 56] | 152 to 156 | 42.2 (≈ 120 µM) | –
22 | CC(=O)Nc1cccc2c1C(=O)C1(NC(C)=O)c3ccc(C(C)C)cc3OC21O (centres unmarked) [Example 57, N,N′-(4b-Hydroxy-7-isopropyl-10-oxo-9b,10-dihydro-4bH-benzo[d]indeno[1,2-b]furane-1,9b-diyl)diacetamide] | 189 to 191 | 46.7 (≈ 118 µM) | –
23 | CC(C)c1ccc2c(c1)OC1(O)c3c(N)ccc(N)c3C(=O)C21O (centres unmarked) [Example 61, 1,4-diamino-4b,9b-dihydroxy-7-isopropyl-4bH-benzo[d]indeno[1,2-b]furan-10(9bH)-one] | 223 to 231 | > 50 | –
24 | CC(C)c1ccc2c(c1)OC1(O)c3ccc(N)c(N)c3C(=O)C21O (centres unmarked) [Example 62, 1,2-Diamino-4b,9b-dihydroxy-7-isopropyl-4bH-indeno[1,2-b]benzofuran-10(9bH)-one] | 163 to 166 | > 50 | –
25 | CC(C)c1ccc2c(c1)OC1(OCCO)c3ccccc3C(=O)C21O (centres unmarked) [Example 79, 9b-Hydroxy-4b-(2-hydroxyethoxy)-7-isopropyl-4bH-benzo[d]indeno[1,2-b]furan-10(9bH)-one] | 100 to 105 | 10.4 (≈ 30.6 µM) | –
26 | CC(C)c1ccc2c(c1)O[C@@]1(O)c3cccc([N+](=O)[O-])c3C(=O)[C@@]21O [Example 80, 4b,9b-Dihydroxy-7-isopropyl-1-nitro-4bH-benzo[d]indeno[1,2-b]furan-10(9bH)-one] | 186 to 188 | 47.5 (≈ 139 µM) | –
27 | COc1cc2c(cc1OC)[C@]1(O)Oc3cc(C(C)C)ccc3[C@]1(O)C2=O [Example 81, 4b,9b-Dihydroxy-7-isopropyl-2,3-dimethoxy-4bH-benzo[d]indeno[1,2-b]furan-10(9bH)-one] | 127 to 129 | 8.61 (≈ 24.2 µM) | –
28 | Cc1cc2c(cc1C)C1(O)Oc3cc(C(C)C)ccc3C1(O)C2=O (centres unmarked) [Example 82, 4b,9b-dihydroxy-7-isopropyl-2,3-dimethyl-4bH-benzo[d]indeno[1,2-b]furan-10(9bH)-one] | 138 to 140 | 1.9 (≈ 5.86 µM) | –
29 | COC(=O)N[C@@]12C(=O)c3ccccc3[C@]1(O)Oc1cc(C(C)C)ccc12 [Example 84, Methyl (4bS,9bS)-4b-hydroxy-7-isopropyl-10-oxo-9b,10-dihydro-4bH-benzo[d]indeno[1,2-b]furan-9b-ylcarbamate] | 161 to 163 | > 50 | –
30 | CC(=O)Nc1cccc2c1C(=O)[C@@]1(NC(C)=O)c3ccc(C(C)C)cc3O[C@@]21O [Example 87, N,N′-((4bS,9bS)-4b-Hydroxy-7-isopropyl-10-oxo-9b,10-dihydro-4bH-benzo[d]indeno[1,2-b]furane-1,9b-diyl)diacetamide] | 205 to 207 | 36.8 (≈ 93.2 µM) | –
31 | Cc1cc(CCCOc2c(C)cc(-c3noc(C(F)(F)F)n3)cc2C)on1 [Pleconaril, pleconaril] | – | – | side effects [5]: side effects were observed; therapy success [5]: therapy success was too low; oral bioavailability ([6]; oral): very good oral bioavailability
32 | Cc1cc(CCCCCOc2c(Cl)cc(C3=NCCO3)cc2Cl)on1 [WIN 54954] | – | – | metabolization and excretion [6]: rapid metabolization and excretion; side effects [7]: skin rash
33 | CCC(=O)C(CCCCCCOc1ccc(OC)cc1Cl)C(=O)CC [arildone, Arildone] | – | – | solubility [8]: poor solubility; bioavailability [6]: low bioavailability
34 | Cc1cc(CCCCCCCOc2ccc(C3=NCCO3)cc2)on1 [disoxaril] | – | – | bioavailability [6]: low bioavailability; metabolization and excretion [6]: rapid metabolization and excretion
